Consider 1 molecule from patent US12600729B2, “New-type benzazepine fused ring derivative” (SHANGHAI JEYOU PHARMACEUTICAL CO., LTD., priority 2021, dated 2026).

Series [1] addresses T1, human vasopressin receptor V2R (Homo sapiens, UniProt P30518).
T1 construct: host or cells: HeLa (lentivirus infection, puromycin selection)
The series is described as follows: Inhibition of vasopressin-induced activation of V2R (cAMP HTRF in HeLa-V2R cells). Format: cell-based. The settings on record: AVP 2.25 nM, read-out: IC50, inhibition of cAMP increase in human cervical cancer cells (Human V2R Hela-Stable cell line OE2). The method, then:
HeLa-V2R cells were incubated with DMEM medium supplemented with 10% fetal bovine serum under the condition of 37° C. and 5% CO2, and the medium was added with 2 μg/mL puromycin to continuously screen cells expressing V2R. On the day of the experiment, the cells were digested with trypsin, washed twice with the stimulation buffer in the cAMP-GS HIRANGE kit, resuspended, and counted to prepare 1.6×10^6 cells/mL, and IBMX was added until a final concentration of 0.5 mM. 5 μL of cell suspension/well was transferred to a 384-well plate. To the corresponding wells were added 2.5 μL of various concentrations of the test compounds (3-fold dilution from 10 μM, 10 concentration gradients) or DMSO (minimum value Min, maximum value Max as a control), respectively. […]. At the same time, cAMP standard samples (3-fold dilution from 5.6 μM, 10 concentration points) were prepared, and 10 μL of cAMP standard samples were transferred to corresponding wells of a 384-well plate. The cAMP-d2 fluorescence and anti-cAMP antibody probes provided in the kit were 20-fold diluted by the lysis buffer in the cAMP-GS HIRANGE kit. To each well of a 384-well plate was sequentially added 5 μL of each diluted reagent. The above mixture in each well was mixed well, centrifuged briefly, incubated at 25° C. for 2 hours, and tested. The sample was tested by the HTRF method with the Envision microplate reader to determine the fluorescence intensity at 615 nm and 665 nm. Each test sample was tested in duplicate, with 32 replicates for both Min and Max, respectively.
The fluorescence intensity ratio FI665/615 at the wavelength of 665 nm and 615 nm of the samples in each well was calculated. The logarithm of the concentration of the standard was taken as X, and FI665/615×1000 as the Y value, and the standard curve was obtained by fitting the “log(inhibitor) vs response-variable slope (four parameters)” model in Prism 8.0 software. FI665/615×1000 of the test well was taken as the Y value, and the cAMP concentration corresponding to each sample was calculated in the Prism 8.0 software according to the above standard curve.
% Inhibition (inhibition percentage) calculation formula is as follows: % inhibition=(Cmax−Ccmpd)/(Cmax−Cmin)×100
wherein Cmax is the average calculated value of cAMP concentration in all maximum wells; Cmin is the average calculated value of cAMP concentration in all minimum wells; Ccmpd is the calculated value of cAMP concentration of the test compound.
% Inhibition (inhibition percentage) was taken as the Y value, and the logarithmic value of the compound concentration was taken as the X value, and the IC50 was calculated by nonlinear regression with “log(inhibitor) vs response-variable slope (four parameters)” model in Prism 8.0 software, wherein Y=Bottom+(Top−Bottom)/(1+10^((Log IC50−X)×Hill Slope)).
In general terms: TR-FRET usually uses a lanthanide donor and a delayed reading to cut background.

In a further series the target is T2, human V2R (Homo sapiens, UniProt P30518).
T2 construct: purchased Perkinelmer, USA
In words: Competitive isotope ligand binding, V2 receptor. The method, then: (§1) The cells with high expression of human V1a receptor were amplified, collected, washed twice with PBS, resuspended with PBS containing a protease inhibitor, homogenized with a homogenizer at 15000 r/min to break the cells, and centrifuged at 4° C. and 3000 r/min for 15 minutes. The supernatant was collected, centrifuged at 20,000 r/min at 4° C. for 45 minutes. Then the supernatant was discarded to obtain a cell membrane precipitation. Buffer was added to resuspend to measure the protein concentration, aliquoted, and stored at −80° C. The cell membranes of highly expressed human V1b and V2 receptors were purchased from Perkinelmer, USA.
(§2) The stock solution of the test compound and that of the positive control were diluted to 1 mM (10-fold dilution) and 0.1 mM (100-fold dilution) with DMSO, respectively, and then sequentially subjected to a four-fold dilution with DMSO to the tenth point.
(§3) Cell membranes overexpressing human receptors were prepared with assay buffer to 5 mg/mL.
(§4) • 1. 1 μL of the compound was aspirated from the dilution plate into each well of the 96-well assay plate (the concentration of the test compound in the reaction would be diluted 100-fold). To the control well was added 1 μL of DMSO. • 2. 10 mL of membrane solution containing 5 μg/μL was prepared. • 3. To the compound assay plate was added the membrane solution from step 2 with a pipette, and each well was added with 89 μL of the membrane solution. • 4. […] The configured test plate was placed at 30° C. and incubated for 60 minutes. • 6. The membrane complexes were collected into 0.5% PEI pre-coated GF/B plate with Cell Harvester, washed 3 times with 2 mL of pre-cooled elution buffer at 4° C., and dried at 37° C. for 2 hours. • 7.
(§5) Y=Bottom+(Top−Bottom)/(1+10^((X−Log IC50))), wherein: Y is the reading value of the liquid scintillation counter, and X is the logarithmic value of the compound concentration.

Another series addresses T3, human V1bR (Homo sapiens, UniProt P47901).
T3 construct: purchased Perkinelmer, USA
T3 sequence (P47901 1-424): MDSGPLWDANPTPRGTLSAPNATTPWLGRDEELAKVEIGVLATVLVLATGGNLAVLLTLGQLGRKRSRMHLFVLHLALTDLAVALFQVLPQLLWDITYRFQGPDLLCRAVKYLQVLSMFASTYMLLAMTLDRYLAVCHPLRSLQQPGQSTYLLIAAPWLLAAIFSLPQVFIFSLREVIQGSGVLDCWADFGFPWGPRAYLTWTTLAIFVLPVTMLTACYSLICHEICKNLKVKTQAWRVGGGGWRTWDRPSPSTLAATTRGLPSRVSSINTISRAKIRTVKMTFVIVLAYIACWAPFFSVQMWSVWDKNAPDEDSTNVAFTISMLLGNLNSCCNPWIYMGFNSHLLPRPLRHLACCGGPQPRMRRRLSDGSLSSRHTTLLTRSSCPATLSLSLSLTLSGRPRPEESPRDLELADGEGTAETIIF
The series is described as follows: Competitive isotope ligand binding, V1b receptor. The method, then: as §1, §2, §3, §4, §5

Series [2] in a line: In vivo pharmacokinetics in mice, oral administration. The settings on record: male CD1 mice, oral 10 mg/kg. As to the method:
In this experimental example, in vivo pharmacokinetic evaluations were performed on mice by intravenous injection and oral administration.
Experimental methods and conditions: Male CD1 mice, 6 to 8 weeks old with free access to food and water, were administered by oral gavage with a dosage of 10 mg/kg (solvent 5% DMSO/10% Solutol/85% Saline). 15 minutes, 30 minutes, 1 hour, 2 hours, 4 hours, 8 hours, 10 hours, 24 hours after administration, blood samples were collected. Each sample was collected in a volume of 150 μL and anticoagulated with heparin sodium, placed on ice after collection, and centrifuged within 1 hour to separate the test plasma. The plasma concentration in plasma was tested by liquid chromatography-tandem mass spectrometry (LC/MS/MS), and pharmacokinetic parameters were calculated using Phoenix WinNonlin software via the measured concentration.

Structures are written as SMILES. Where two headings read alike, the source gives them in different places.

T2 sequence (P30518 whole entry): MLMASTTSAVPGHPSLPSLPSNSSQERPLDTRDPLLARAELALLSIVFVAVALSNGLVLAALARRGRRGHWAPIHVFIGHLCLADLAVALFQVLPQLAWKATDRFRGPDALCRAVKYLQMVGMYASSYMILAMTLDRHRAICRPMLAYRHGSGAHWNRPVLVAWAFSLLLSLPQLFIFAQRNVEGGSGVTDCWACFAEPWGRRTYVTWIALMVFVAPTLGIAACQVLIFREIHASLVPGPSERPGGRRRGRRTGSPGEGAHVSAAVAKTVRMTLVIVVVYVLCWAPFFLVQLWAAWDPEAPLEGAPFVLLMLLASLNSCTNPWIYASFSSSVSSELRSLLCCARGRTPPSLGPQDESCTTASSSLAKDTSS
T1 sequence (P30518 whole entry): as above

Take `O=C(Nc1ccc(C(=O)N2CC[C@@H]3CCN[C@H]3c3cc(Cl)ccc32)cn1)c1ccccc1C(F)(F)F` (single isomer, unassigned) [Compound 10A]: the IC50 in series [1] was 31 nM; at human V1bR it was more than 10000 nM. Besides, the “binding affinity for V2R compared with V1a (V1a/V2 selectivity)” value at human V2R is “higher than that for V1a”. Besides, the Ki at human V2R (Binding affinity V2R, N = 1, isotope-labeled vasopressin 1 nM, experiment 1) is 2.1 nM; at human V2R (Binding affinity V2R, N = 2, isotope-labeled vasopressin 1 nM, experiment 2), 2.76 nM; on human V2R (isotope-labeled vasopressin 1 nM, mean ± spread, read-out: Binding affinity V2R, mean of the two experiments), 2.4 ± 0.3 nM; on human V1bR, more than 10 µM; at human V1bR (isotope-labeled vasopressin […], bound given in μM, read-out: Binding affinity V1bR, summary of the two experiments), more than 10 µM; at human V1bR (read-out: Binding affinity V1bR, N = 2, isotope-labeled vasopressin […], experiment 2, bound printed in μM), more than 10 µM. In addition, in series [2], the F turned out to be 73.34%. Also, the AUC(0-inf) in series [2] (mouse, plasma) came out at 2030 ng·h/mL. The same molecule registered a maximum concentration (Cmax) in series [2] (mouse, plasma) of 833 ng/mL. Besides, in series [2] (mouse, plasma), the half-life is 4.44 h.

As a reminder, the IC50 is the concentration needed to halve the response being measured. Broadly, the AUC(0-inf) is total exposure, with the tail of the curve extrapolated. Low values mean low exposure, high ones high exposure. By Cmax is commonly meant the maximum level reached in the sampled fluid or tissue. By half-life is commonly meant the time needed for the level to fall by half in the phase considered.
